Data: ChEMBL document CHEMBL4052718, “Stereospecific inhibition of nitric oxide production in macrophage cells by flavanonols: Synthesis and the structure-activity relationship. Part 2” (Bioorg Med Chem, 2017)
pIC50: −log10 of the molar value.

Legend:
RAW264.7 [1] = test: Inhibition of LPS-stimulated nitric oxide production in […] cells at 100 uM pretreated for 2 hrs followed by LPS-stimulation after 16 hrs by Griess assay relative to control; assay type: functional; settings: Mus musculus
RAW264.7 [2] = test: Inhibition of LPS-stimulated nitric oxide production in […] cells pretreated for 2 hrs followed by LPS-stimulation after 16 hrs by Griess assay; assay type: functional, cell-based; settings: Mus musculus
RAW264.7 [3] = test: Cytotoxicity against LPS-stimulated […] cells assessed as reduction in cell viability at 100 uM pretreated for 2 hrs followed by LPS-stimulation after 16 hrs by alamar blue assay; assay type: cell-based; settings: raw264.7, 16 h
[4] = Cytotoxicity against LPS-stimulated […] cells assessed as cell viability pretreated for 2 hrs followed by LPS-stimulation after 16 hrs by alamar blue assay relative to control; assay type: cell-based; design: concentration or dose not given beside the values; settings: LPS-stimulated RAW264.7 cells; read-out: Activity

For `COc1cc(OC)c2c(c1)O[C@H](c1cccc(O)c1O)[C@@H](O)C2=O`, the inhibition at 100 µM (RAW264.7 [1]) was 70%.

In the case of `O=C1c2ccc(O)cc2O[C@H](c2cccc(O)c2O)[C@H]1O`, the pIC50 (RAW264.7 [2]) was 4.15, the inhibition at 100 µM (RAW264.7 [1]) was 70% and the Activity (RAW264.7 [3]) was “Non-Toxic”. The viability at 16 h [4] was ≥ 100%.

In the case of `COc1ccc2c(c1)O[C@@H](c1cccc(O)c1O)[C@H](O)C2=O`, the pIC50 (RAW264.7 [2]) was 4.52, the Activity (RAW264.7 [3]) was “Non-Toxic” and the viability at 16 h [4] was ≥ 100%.

With `COc1ccc2c(c1)O[C@H](c1cccc(O)c1O)[C@@H](O)C2=O` the pIC50 (RAW264.7 [2]) was 4.61, the Activity (RAW264.7 [3]) was “Non-Toxic” and the viability at 16 h [4] was ≥ 100%.

With `O=C1c2ccc(O)c(O)c2O[C@H](c2cccc(O)c2O)[C@H]1O` the pIC50 (RAW264.7 [2]) was 4.77, the inhibition at 100 µM (RAW264.7 [1]) was 95% and the Activity (RAW264.7 [3]) was “Non-Toxic”. For the same molecule, the viability at 16 h [4] was ≥ 100%.

With `COc1ccc2c(c1)C(=O)[C@H](O)[C@@H](c1cccc(O)c1O)O2` the pIC50 (RAW264.7 [2]) was < 4.00, the Activity (RAW264.7 [3]) was “Non-Toxic” and the viability at 16 h [4] was ≥ 100%.

For `O=C1c2c(O)cccc2O[C@H](c2cccc(O)c2O)[C@H]1O`, the pIC50 (RAW264.7 [2]) was 4.11, the Activity (RAW264.7 [3]) was “Non-Toxic” and the viability at 16 h [4] was ≥ 100%.

For `O=C1c2c(O)cccc2O[C@@H](c2cccc(O)c2O)[C@@H]1O`, the pIC50 (RAW264.7 [2]) was < 4.00, the Activity (RAW264.7 [3]) was “Non-Toxic” and the viability at 16 h [4] was ≥ 100%.

In the case of `COc1ccc2c(c1O)O[C@H](c1cccc(O)c1O)[C@@H](O)C2=O`, the pIC50 (RAW264.7 [2]) was 4.30, the inhibition at 100 µM (RAW264.7 [1]) was 93% and the Activity (RAW264.7 [3]) was “Non-Toxic”. For the same molecule, the viability at 16 h [4] was ≥ 100%.

In the case of `O=C1c2cc(O)ccc2O[C@@H](c2cccc(O)c2O)[C@@H]1O`, the pIC50 (RAW264.7 [2]) was < 4.00, the Activity (RAW264.7 [3]) was “Non-Toxic” and the viability at 16 h [4] was ≥ 100%.

With `COc1cc2c(cc1OC)C(=O)[C@H](O)[C@@H](c1cccc(O)c1O)O2` the pIC50 (RAW264.7 [2]) was 4.30, the inhibition at 100 µM (RAW264.7 [1]) was 93% and the Activity (RAW264.7 [3]) was “Non-Toxic”. For the same molecule, the viability at 16 h [4] was ≥ 100%.

In the case of `COc1ccc2c(c1)C(=O)[C@@H](O)[C@H](c1cccc(O)c1O)O2`, the pIC50 (RAW264.7 [2]) was < 4.00, the Activity (RAW264.7 [3]) was “Non-Toxic” and the viability at 16 h [4] was ≥ 100%.

With `COc1ccc2c(c1O)O[C@@H](c1cccc(O)c1O)[C@H](O)C2=O` the pIC50 (RAW264.7 [2]) was 4.05, the Activity (RAW264.7 [3]) was “Non-Toxic” and the viability at 16 h [4] was ≥ 100%.

For `O=C1c2ccc(O)cc2O[C@@H](c2cccc(O)c2O)[C@@H]1O`, the pIC50 (RAW264.7 [2]) was < 4.00, the Activity (RAW264.7 [3]) was “Non-Toxic” and the viability at 16 h [4] was ≥ 100%.

For `O=C1c2ccccc2O[C@H](c2cccc(O)c2O)[C@H]1O`, the pIC50 (RAW264.7 [2]) was < 4.00, the Activity (RAW264.7 [3]) was “Non-Toxic” and the viability at 16 h [4] was ≥ 100%.

With `O=C1c2ccccc2O[C@@H](c2cccc(O)c2O)[C@@H]1O` the pIC50 (RAW264.7 [2]) was < 4.00, the Activity (RAW264.7 [3]) was “Non-Toxic” and the viability at 16 h [4] was ≥ 100%.

For `O=C1c2cc(O)ccc2O[C@H](c2cccc(O)c2O)[C@H]1O`, the pIC50 (RAW264.7 [2]) was < 4.00, the Activity (RAW264.7 [3]) was “Non-Toxic” and the viability at 16 h [4] was ≥ 100%.

For `COc1cc2c(cc1OC)C(=O)[C@@H](O)[C@H](c1cccc(O)c1O)O2`, the pIC50 (RAW264.7 [2]) was < 4.00, the Activity (RAW264.7 [3]) was “Non-Toxic” and the viability at 16 h [4] was ≥ 100%.

In the case of `O=C1c2ccc(O)c(O)c2O[C@@H](c2cccc(O)c2O)[C@@H]1O`, the pIC50 (RAW264.7 [2]) was < 4.00, the inhibition at 100 µM (RAW264.7 [1]) was 0% and the Activity (RAW264.7 [3]) was “Non-Toxic”. The viability at 16 h [4] was ≥ 100%.

For `Cc1ccc2c(c1)OC(c1cccc(O)c1O)C(O)C2=O` (racemic), the pIC50 (RAW264.7 [2]) was 4.50, the Activity (RAW264.7 [3]) was “Non-Toxic” and the viability at 16 h [4] was ≥ 100%.

For `COc1cc(OC)c2c(c1)OC(c1cccc(O)c1O)C(O)C2=O` (racemic), the pIC50 (RAW264.7 [2]) was 4.24, the inhibition at 100 µM (RAW264.7 [1]) was 58% and the Activity (RAW264.7 [3]) was “Non-Toxic”. For the same molecule, the viability at 16 h [4] was ≥ 100%.

With `Cc1ccc2c(c1)C(=O)C(O)C(c1cccc(O)c1O)O2` (racemic) the pIC50 (RAW264.7 [2]) was 4.34, the Activity (RAW264.7 [3]) was “Non-Toxic” and the viability at 16 h [4] was ≥ 100%.

For `Cc1cc2c(cc1C)C(=O)C(O)C(c1cccc(O)c1O)O2` (racemic), the pIC50 (RAW264.7 [2]) was 4.68, the Activity (RAW264.7 [3]) was “Non-Toxic” and the viability at 16 h [4] was ≥ 100%.
